Earlier results in patent US11707272B2, “Packaged antimicrobial medical device having improved shelf life and method of preparing same” (ETHICON, LLC, priority 2012, dated 2023).

Test system: S. aureus
Details: measured in a suitable growth medium; as described by Bhargava, H. et al, American Journal of Infection Control, June 1996

For `Oc1cc(Cl)ccc1Oc1ccc(Cl)cc1Cl` [2,4,4′-trichloro-2′-hydroxydiphenyl ether], the “minimum inhibitory concentration (MIC) against S. aureus” value is listed as 0.01 ppm.
